Experimental data published in paper PMC7663056, “Crystal Structure and Inhibitor Identifications Reveal Targeting Opportunity for the Atypical MAPK Kinase ERK3” (International Journal of Molecular Sciences, 2020).
Where two headings read alike, the source gives them in different places.

Legend:
ERK3 kinase domain [1] = molecular target: T1, ERK3 kinase domain (Homo sapiens, UniProt Q16659); assay: Melting temperature assay (differential scanning fluorimetry, DSF); format: binding; details: for ΔTm (melting temperature shift): DSF screen of 1454 kinase inhibitors
T1 construct: The kinase domain of ERK3 (M9-I327) was subcloned into pNIC28–Bsa4; His6 (N, cleaved yes); made in house; host or cells: E. coli (co-expressed with lambda phosphatase)
T1 sequence (Q16659 9-327): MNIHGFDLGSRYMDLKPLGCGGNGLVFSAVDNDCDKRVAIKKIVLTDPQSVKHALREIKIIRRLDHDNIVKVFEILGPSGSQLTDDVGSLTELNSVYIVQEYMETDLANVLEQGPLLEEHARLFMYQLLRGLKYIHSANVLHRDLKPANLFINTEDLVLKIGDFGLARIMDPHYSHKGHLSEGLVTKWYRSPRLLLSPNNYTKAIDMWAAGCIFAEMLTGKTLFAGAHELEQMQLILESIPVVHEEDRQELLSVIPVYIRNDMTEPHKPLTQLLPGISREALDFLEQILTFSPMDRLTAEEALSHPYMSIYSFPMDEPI
Protocol: The ERK3 kinase domain at 2 µM in 10 mM HEPES pH 7.5 and 500 mM NaCl was mixed with 10 µM inhibitors and SyPRO Orange at 1:1000 dilution. After 10 min incubation at room temperature, the fluorescence signal, which increases upon the temperature-dependent unfolding of ERK3 protein, was measured using Mx3005p real-time PCR machine (Stratagene, San Diego, CA, USA). The ∆Tm shifts were calculated using protocol described previously.

[2] = molecular target: T2, Full length ERK3 (NanoLuc fusion) (Homo sapiens, UniProt Q16659); assay: Cell-based NanoBRET assay (tracer displacement) in HEK293T cells; details: for remaining activity at 5 µM / remaining activity at 10 µM: HEK-293T, 2 h, Table S3, ratio to DMSO control; for remaining activity at 5 µM: single dose 5 µM, read-out: Norm.BRET 5 µM; for remaining activity at 10 µM: single dose 10 µM, read-out: Norm.BRET 10 µM; for IC50: Figure 2F, HEK293T cells, 0.25 µM Tracer K5, 2 h, averaged over two replicates
T2 construct: Full length ERK3 was cloned into pFC32K (Promega, Madison, WI, USA); expressed in transfected cells; host or cells: HEK293T
T2 sequence (Q16659 whole entry, the tested form may be a part): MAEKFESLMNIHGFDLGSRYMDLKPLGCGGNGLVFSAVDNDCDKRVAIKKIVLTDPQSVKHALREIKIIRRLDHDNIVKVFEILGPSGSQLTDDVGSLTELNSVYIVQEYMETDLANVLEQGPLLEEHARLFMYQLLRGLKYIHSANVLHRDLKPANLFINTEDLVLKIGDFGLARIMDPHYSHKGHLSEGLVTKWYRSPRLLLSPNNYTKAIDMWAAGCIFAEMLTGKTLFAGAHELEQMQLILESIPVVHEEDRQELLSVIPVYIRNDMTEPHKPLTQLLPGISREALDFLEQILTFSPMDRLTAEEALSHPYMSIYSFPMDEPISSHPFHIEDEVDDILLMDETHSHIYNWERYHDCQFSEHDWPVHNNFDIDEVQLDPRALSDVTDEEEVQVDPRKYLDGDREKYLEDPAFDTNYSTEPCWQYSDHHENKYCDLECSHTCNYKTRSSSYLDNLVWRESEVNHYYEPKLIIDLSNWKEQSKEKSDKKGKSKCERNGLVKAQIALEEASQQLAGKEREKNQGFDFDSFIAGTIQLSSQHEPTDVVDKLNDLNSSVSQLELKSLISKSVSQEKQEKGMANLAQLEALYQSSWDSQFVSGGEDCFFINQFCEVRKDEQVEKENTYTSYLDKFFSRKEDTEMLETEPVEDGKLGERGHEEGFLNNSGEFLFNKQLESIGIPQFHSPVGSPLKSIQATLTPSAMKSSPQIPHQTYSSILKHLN
Protocol: Full length ERK3 was cloned into pFC32K (Promega, Madison, WI, USA) for the expression of an […] NanoLuc fusion, and the plasmid was transfected into HEK293T cells cultured in DMEM (Gibco) supplemented with 10% fetal bovine serum (Gibco) and penicillin/streptamycin (Gibco, Thermo Fisher Scientific, Waltham, MA, USA). NanoBRET assays were performed using protocol published previously. Briefly, after transfection and 20 h incubation, cells were harvested and subsequently resuspended in OptiMEM (Gibco). […] BRET luminescence (450 nm for donor emission and 610 nm for BRET signal) was measured using PHERAstar FSX plate reader (BMG Labtech, Ortenberg, Germany). Milli-BRET units (mBU) were calculated as a ratio between the BRET signal and the overall measured luminescence. A dose–response fitting was applied, and the corresponding IC50 values were calculated in Prism software. For the single concentration screening, the normalized BRET values were calculated from the ratio between the BRET signals of the tested inhibitor and that of the DMSO control.

ERK3 kinase domain [3] = molecular target: T1, ERK3 kinase domain; assay: Isothermal titration calorimetry (ITC); format: binding; details: for Kd: Figure 2E, 15 °C, averaged over two replicates, read-out: ITC dissociation constant Kd
Protocol: The integrated heat of titration was calculated and fitted into an independent binding model using NanoAnalyzer software. Thermodynamic parameters, the dissociation constant (Kd), and stoichiometry (n) were an average over duplicates.

ERK3 kinase domain [4] = molecular target: T1, ERK3 kinase domain; assay: Mass spectrometry analyses of covalent adducts (intact mass, chymotrypsin digestion); format: binding; details: kinase and inhibitor at 1:1 ratio, 30 min, room temperature
Protocol: The protein was purified using C8 stage tips, and the intact mass was analysed using LC-ESI TOF (Agilient, Santa Clara, CA, USA) and Bioconfirm software (Agilient). Chymotrypsin digestion followed by mass spectrometry analysis was performed to identify the residue that forms a covalent bond with the inhibitors. […] The protein was subsequently precipitated by 50% […], and the resulting pellet was washed twice with cold acetone. Chymotrypsin (Sigma Aldrich) digestion was performed in 50 mM (NH4)2CO3 overnight at 37 °C. The solution after proteolysis were spotted in quadruplets onto the 4-chloro-α-cyanocinnamic acid matrix (Sigma Aldrich; 3 mg mL^−1 in TFA-acidified 50% acetonitrile), and the m/z ratios were analysed on a Thermo Fisher MALDI-LTQ Orbitrap XL spectrometer.

[5] = Table S2, 10 µM inhibitors, read-out: ΔTm Initial Screen
[6] = Table S2, average of two repeats ± standard deviation, read-out: ΔTm Follow Up
[7] = Table S3, DSF assay values shown for comparison, read-out: ΔTm ERK3

SMILES | ΔTm at 10 µM (ERK3 kinase domain [1]; [5]) [°C] | ΔTm at 10 µM (ERK3 kinase domain [1]; [6]) [°C] | remaining activity at 5 µM ([2]; HEK293T) [%] | remaining activity at 10 µM ([2]; HEK293T) [%] | ΔTm at 10 µM (ERK3 kinase domain [1]; [7]) [°C] | also measured
CCn1cc(-c2ccnc3[nH]c(-c4cccc(CN(C)C)c4)cc23)c(-c2ccc(NC(=O)N(C)C)cc2)n1 [GSK1070916] | 1.45 | 0.1 ± 0.3 | 56.8 ± 2.8 | 31.3 ± 0.1 | – | IC50, cell-based NanoBRET assay ([2]; HEK293T): did not produce a BRET signal
CN1CCN(c2ccc(Nc3nccc(-c4cnn5ncccc45)n3)cc2C#N)CC1 [CAF078] | 3.83 | 3.3 ± 0.2 | – | – | – | ΔTm (melting temperature shift) (ERK3 kinase domain [1]): 3.1–3.8 °C; IC50 [2]: 0.009 ± 0.001 µM; ITC dissociation constant (Kd), in words (ERK3 kinase domain [3]): low nanomolar affinities; Kd (ERK3 kinase domain [3]): 0.044 ± 0.026 µM
C=CC(=O)Nc1cc2c(Nc3ccc(F)c(Cl)c3)ncnc2cc1OCCCN1CCOCC1 [Canertinib] | 2.05 | 3.1 ± 0.3 | – | – | – | –
COc1cccc(-c2c[nH]c3c(N/N=C/c4ccncc4)ncnc23)c1 [GW814408X] | 2.55 | 2.5 ± 0.2 | – | – | – | –
CNC(=O)c1cc(Oc2ccc(NC(=O)Nc3ccc(Cl)c(C(F)(F)F)c3)cc2)ccn1 [Sorafenib] | – | – | – | – | – | ΔTm at 10 µM (ERK3 kinase domain [1]; read-out: ΔTm Follow Up): 0 °C; ΔTm at 10 µM (ERK3 kinase domain [1]; read-out: ΔTm Initial Screen): 1.2 °C
CC(C)(C)c1cnc(CSc2cnc(NC(=O)C3CCNCC3)s2)o1 [SNS-032] | – | – | 71.7 ± 7.8 | 49.8 ± 4.1 | 0.15 | –
CN(c1ncccc1CNc1nc(Nc2ccc3c(c2)CC(=O)N3)ncc1C(F)(F)F)S(C)(=O)=O [PF-00562271] | – | – | 76.8 ± 9.4 | 49.5 ± 4.6 | -0.09 | –
NC(=O)c1cnc(N[C@@H]2CCCC[C@@H]2N)nc1Nc1cccc(-n2nccn2)c1 [PRT062607] | – | – | 88.2 ± 10.3 | 60.1 ± 16.9 | 0.51 | –
COc1cccc(-n2ncc3c(N/N=C/c4ccc(C(=O)NCCN(C)C)cc4)ncnc32)c1 [GW784307A] | – | – | – | – | – | ΔTm at 10 µM (ERK3 kinase domain [1]; read-out: ΔTm Initial Screen): 1.3 °C
CN(C)C/C=C/C(=O)Nc1cccc(C(=O)Nc2ccc(Nc3nccc(-c4cccnc4)n3)cc2)c1 [JNK-IN-7] | – | – | – | – | – | IC50 [2]: 0.112 ± 0.023 µM; covalent adduct formation (intact mass shift) (ERK3 kinase domain [4]): covalent formation, albeit only partially
CC(C)(C)c1cc(NC(=O)Nc2ccc(-c3cn4c(n3)sc3cc(OCCN5CCOCC5)ccc34)cc2)no1 [Quizartinib] | – | – | – | – | – | ΔTm Initial Screen (ERK3 kinase domain [1]; Table S2, 10 µM inhibitors): 1.12 °C
CN1CCN(c2ccc(Nc3nccc(-c4cnn5ncccc45)n3)cc2)CC1 [CAF045] | – | – | – | – | – | ΔTm at 10 µM (ERK3 kinase domain [1]; read-out: ΔTm Follow Up): 1.4 ± 0.5 °C; ΔTm at 10 µM (ERK3 kinase domain [1]; read-out: ΔTm Initial Screen): 1.61 °C
Fc1ccc(-c2ncn(C3CCNCC3)c2-c2ccnc(Oc3ccc4c(c3)OCO4)n2)cc1 [SB-250715] | 1.1 | – | – | – | – | –
O=C(Nc1cc(C(F)(F)F)cc(C(F)(F)F)c1)c1cc(Cl)ccc1O [IMD0354] | – | – | – | – | – | ΔTm at 10 µM (ERK3 kinase domain [1]; read-out: ΔTm Initial Screen): 1.21 °C
O=C(Nc1cccc(Nc2ncc(Br)c(NCCc3cnc[nH]3)n2)c1)N1CCCC1 [BX-912] | – | – | 74.1 ± 1.5 | 53.2 ± 1.7 | -0.12 | –
O=C(Nc1c[nH]nc1-c1nc2ccc(CN3CCOCC3)cc2[nH]1)NC1CC1 [AT9283] | 3.08 | 3.1 ± 0.1 | 16.1 ± 3.9 | 10.6 ± 1.5 | – | ΔTm (melting temperature shift) (ERK3 kinase domain [1]): 3.1–3.8 °C; IC50 [2]: 0.015 ± 0.007 µM; ITC dissociation constant (Kd), in words (ERK3 kinase domain [3]): low nanomolar affinities; Kd (ERK3 kinase domain [3]): 0.08 ± 0.005 µM
O=C1Nc2ccc(I)cc2C1=Cc1cc(Br)c(O)c(Br)c1 [GW5074] | – | – | – | – | – | ΔTm at 10 µM (ERK3 kinase domain [1]; read-out: ΔTm Initial Screen): 1.36 °C
Nc1cccc(-c2cc3c(Oc4cccc(O)c4)ncnc3[nH]2)c1 [TWS119] | – | – | 54.2 ± 6.4 | 28.1 ± 5.5 | 0.6 ± 0.2 | IC50 [2]: 0.601 ± 0.029 µM; Kd (ERK3 kinase domain [3]): 1.93 ± 0.182 µM
COc1cc2ncnc(Nc3cccc(Cl)c3)c2cc1OC [AG-1478] | – | – | 73.5 ± 1.1 | 41.7 | 0.06 | –

More lines, main results first:

ΔTm at 10 µM (ERK3 kinase domain [1]; [5]) [°C] | ΔTm at 10 µM (ERK3 kinase domain [1]; [6]) [°C] | remaining activity at 5 µM ([2]; HEK293T) [%] | remaining activity at 10 µM ([2]; HEK293T) [%] | ΔTm at 10 µM (ERK3 kinase domain [1]; [7]) [°C] | SMILES | also measured
1.04 | 1.1 ± 0.2 | – | – | – | NS(=O)(=O)c1ccc(N/N=C2\C(=O)Nc3ccc4ncccc4c32)cc1 [GW305178X] | –
– | – | 93.3 ± 4 | 61.7 ± 2.2 | -0.17 | Cc1ncc(-c2ccnc(Nc3ccc(S(C)(=O)=O)cc3)n2)n1C(C)C [AZD5438] | –
1.17 | – | – | – | – | O=C(NC(NC(=S)Nc1ccc(F)c([N+](=O)[O-])c1)C(Cl)(Cl)Cl)C(c1ccccc1)c1ccccc1 (stereo not shown) [CGK733] | –
– | – | 23.1 ± 0.1 | 17 ± 0.1 | 0.2 ± 0.1 | Nc1nc(Nc2ccc(S(N)(=O)=O)cc2)nn1C(=O)c1c(F)cccc1F [JNJ-7706621] | –
1.67 | 1.7 ± 0.4 | 28.8 ± 2.4 | 19.6 ± 5.7 | – | O=C(c1ccc(Nc2nccc(-c3cc4ccccc4s3)n2)cc1)N1CCC(N2CCCC2)CC1 [IKK-16] | IC50 [2]: 0.116 ± 0.026 µM; Kd (ERK3 kinase domain [3]): 1.85 ± 0.915 µM
1.04 | 0.8 ± 0.4 | – | – | – | CS(=O)(=O)CCNCc1ccc(-c2ccc3ncnc(Nc4ccc(OCc5ccccc5)c(Br)c4)c3c2)o1 [GW580496A] | –
1.15 | – | – | – | – | O=C(/C=C/c1ccc(O)c(O)c1)c1ccc(O)cc1O [Butein] | –
1.7 | 1 ± 0.1 | – | – | – | O=C(Nc1ccc(Nc2nccc(Nc3cc(C4CCCC4)[nH]n3)n2)cc1)Nc1cccc(C(F)(F)F)c1 [CD532] | –
– | – | 46.6 ± 2.2 | 36.9 ± 0.7 | 0.3 ± 0.2 | Cc1cnc(Nc2ccc(N3CCN(C)CC3)cc2)nc1Nc1cccc(S(=O)(=O)NC(C)(C)C)c1 [TG101209] | IC50 [2]: 1.54 ± 0.214 µM
2.11 | 2.5 ± 0.3 | 40.9 | 26.8 ± 0.5 | – | CNC(=O)c1nn(C)c2c1C(C)(C)Cc1cnc(Nc3ccc(N4CCN(C)CC4)cc3)nc1-2 [Milciclib] | IC50 [2]: 0.027 ± 0.005 µM; Kd (ERK3 kinase domain [3]): 0.245 ± 0.06 µM
1.04 | – | – | – | – | C=CC(=O)Nc1cccc(Nc2nc(Nc3ccc(Oc4ccnc(C(=O)NC)c4)cc3)ncc2F)c1 [CNX-774] | –
– | – | 40 ± 1.6 | 38.8 ± 3.1 | 0.4 ± 0.3 | CCN1CCN(Cc2ccc(-c3cc4c(N[C@H](C)c5ccccc5)ncnc4[nH]3)cc2)CC1 [AEE788] | IC50 [2]: 0.145 ± 0.045 µM
– | – | 50.8 ± 4.5 | 36.2 ± 6.3 | -0.1 ± 0.2 | COc1cc2ncnc(Nc3ccc(O)c(Br)c3)c2cc1OC [WHI-P154] | IC50 [2]: 0.54 ± 0.129 µM
1.96 | 1.2 ± 0.6 | – | – | – | COc1ccc(Cl)c(Nc2nc3ccccc3nc2NS(=O)(=O)c2cccc(NC(=O)C(C)(C)N)c2)c1 [XL147] | –
– | – | 67.8 ± 10.6 | 45.5 ± 4.2 | -3.92 ± 0.3 | Oc1ccc2ccccc2c1SSc1c(O)ccc2ccccc12 [IPA-3] | –
1.12 | -0.3 ± 0.3 | – | – | – | CCCN1CCC(c2ccc(Nc3nc(Nc4cc(F)ccc4C(N)=O)c4cc[nH]c4n3)c(OC)c2)CC1 [GSK1326255A] | –
2.81 | 2.5 ± 0.3 | – | – | – | CN1CCN(c2ccc(Nc3nccc(-c4cnn5ncccc45)n3)cc2F)CC1 [CAF052] | IC50 [2]: 0.02 ± 0.013 µM
– | – | 90.8 ± 3 | 58.5 ± 0.4 | -0.15 | Cc1cc(Nc2cc(N3CCN(C)CC3)nc(/C=C/c3ccccc3)n2)n[nH]1 [ENMD-2076] | –
– | – | 80.6 ± 6.7 | 49.4 ± 1.1 | 0.02 | CC(C)CCN1c2nc(Nc3cc(F)c(O)c(F)c3)ncc2N(C)C(=O)C1C (stereo not shown) [BI-D1870] | –
– | – | 64.9 ± 3.8 | 52.9 ± 2.8 | 0.26 | Cc1nc(N)sc1-c1ccnc(Nc2ccc(N3CCOCC3)cc2)n1 [CYC116] | –
